The source made the active and inactive calls. The rule behind the calls is not given here. Positions of bridges follow the written chain, without caps; N, C: chain ends. Non-standard residues stand in square brackets, D forms with d. Residues, ends and D or L forms follow the SMILES beside them. Dip = N[C@H](C(=O)O)C(c1ccccc1)c1ccccc1; Chg = N[C@H](C(=O)O)C1CCCCC1; S5 = C=CCCC[C@](C)(N)C(=O)O; NMeA = CN[C@@H](C)C(=O)O; AEEA = NCCOCCOCC(=O)O; βAla = NCCC(=O)O
Columns and labels:
[1] = species on record: Homo sapiens; test: Induction of IAP-mediated NOTCH1 protein degradation in human MOLT4 cells assessed as ratio of NOTCH1 to lamin protein level at 50 uM after 6 hrs by Western blot analysis (reference value: 100%); format: cell-based
[2] = species on record: Homo sapiens; test: Induction of IAP-mediated NOTCH1 protein degradation in human MOLT4 cells assessed as ratio of NOTCH1 to lamin protein level at 20 uM after 6 hrs by Western blot analysis (reference value: 91%); format: cell-based
[3] = species on record: Homo sapiens; test: Induction of IAP-mediated NOTCH1 protein degradation in human MOLT4 cells assessed as ratio of NOTCH1 to lamin protein level at 50 uM after 6 hrs by Western blot analysis (reference value: 91%); format: cell-based
[4] = species on record: Homo sapiens; test: Induction of IAP-mediated NOTCH1 protein degradation in human MOLT4 cells assessed as ratio of NOTCH1 to lamin protein level at 100 uM after 6 hrs by Western blot analysis (reference value: 91%); format: cell-based
[5] = tested on: MOLT-4; test: Induction of CSL protein degradation in human MOLT4 cells assessed as ratio of CSL to lamin protein level at 50 uM after 6 hrs by Western blot analysis (reference value: 100%); format: functional
[6] = tested on: MOLT-4; test: Induction of CSL protein degradation in human MOLT4 cells assessed as ratio of CSL to lamin protein level at 20 uM after 6 hrs by Western blot analysis (reference value: 111%); format: functional
[7] = tested on: MOLT-4; test: Induction of CSL protein degradation in human MOLT4 cells assessed as ratio of CSL to lamin protein level at 50 uM after 6 hrs by Western blot analysis (reference value: 111%); format: functional
[8] = tested on: MOLT-4; test: Induction of CSL protein degradation in human MOLT4 cells assessed as ratio of CSL to lamin protein level at 100 uM after 6 hrs by Western blot analysis (reference value: 111%); format: functional
[9] = species on record: Homo sapiens; test: Induction of IAP-mediated NOTCH1 protein degradation in human MOLT4 cells assessed as ratio of NOTCH1 to lamin protein level at 60 uM after 6 hrs by Western blot analysis (reference value: 100%); format: cell-based
[10] = species on record: Homo sapiens; test: Induction of IAP-mediated NOTCH1 protein degradation in human MOLT4 cells assessed as ratio of NOTCH1 to lamin protein level at 70 uM after 6 hrs by Western blot analysis (reference value: 100%); format: cell-based
[11] = species on record: Homo sapiens; test: Induction of IAP-mediated NOTCH1 protein degradation in human MOLT4 cells assessed as ratio of NOTCH1 to lamin protein level at 80 uM after 6 hrs by Western blot analysis (reference value: 100%); format: cell-based
[12] = tested on: MOLT-4; test: Induction of CSL protein degradation in human MOLT4 cells assessed as ratio of CSL to lamin protein level at 60 uM after 6 hrs by Western blot analysis (reference value: 100%); format: functional
[13] = tested on: MOLT-4; test: Induction of CSL protein degradation in human MOLT4 cells assessed as ratio of CSL to lamin protein level at 70 uM after 6 hrs by Western blot analysis (reference value: 100%); format: functional
[14] = tested on: MOLT-4; test: Induction of CSL protein degradation in human MOLT4 cells assessed as ratio of CSL to lamin protein level at 80 uM after 6 hrs by Western blot analysis (reference value: 100%); format: functional
[15] = species on record: Homo sapiens; test: Induction of IAP-mediated NOTCH1 protein degradation in human MOLT4 cells assessed as reduction in c-Myc level at 80 uM by Western blot analysis; format: cell-based; details: TDE = time-dependent effect
[16] = species on record: Homo sapiens; test: Antagonist activity IAP in human MOLT4 cells assessed as reduction in cIAP1 protein level at 50 to 80 uM after 6 hrs by Western blot analysis; format: cell-based
[17] = tested on: MOLT-4; test: Cytotoxicity against human MOLT4 cells at >100 uM; format: cell-based
[18] = species on record: Homo sapiens; test: Induction of IAP-mediated NOTCH1 protein degradation in human MOLT4 cells assessed as ratio of NOTCH1 to beta-actin protein level at 80 uM after 2 hrs by Western blot analysis (reference value: 100%); format: cell-based
[19] = species on record: Homo sapiens; test: Induction of IAP-mediated NOTCH1 protein degradation in human MOLT4 cells assessed as ratio of NOTCH1 to beta-actin protein level at 80 uM after 4 hrs by Western blot analysis (reference value: 100%); format: cell-based
[20] = species on record: Homo sapiens; test: Induction of IAP-mediated NOTCH1 protein degradation in human MOLT4 cells assessed as ratio of NOTCH1 to beta-actin protein level at 80 uM after 6 hrs by Western blot analysis (reference value: 100%); format: cell-based
[21] = species on record: Homo sapiens; test: Induction of IAP-mediated NOTCH1 protein degradation in human MOLT4 cells assessed as ratio of NOTCH1 to beta-actin protein level at 80 uM after 8 hrs by Western blot analysis (reference value: 100%); format: cell-based
[22] = species on record: Homo sapiens; test: Induction of IAP-mediated NOTCH1 protein degradation in human MOLT4 cells assessed as ratio of NOTCH1 to beta-actin protein level at 80 uM after 10 hrs by Western blot analysis (reference value: 100%); format: cell-based
[23] = species on record: Homo sapiens; test: Induction of IAP-mediated NOTCH1 protein degradation in human MOLT4 cells assessed as reduction in c-Myc level by measuring ratio of c-Myc to beta-actin protein level at 80 uM after 2 hrs by Western blot analysis (reference value: 100%); format: cell-based
[24] = species on record: Homo sapiens; test: Induction of IAP-mediated NOTCH1 protein degradation in human MOLT4 cells assessed as reduction in c-Myc level by measuring ratio of c-Myc to beta-actin protein level at 80 uM after 4 hrs by Western blot analysis (reference value: 100%); format: cell-based
[25] = species on record: Homo sapiens; test: Induction of IAP-mediated NOTCH1 protein degradation in human MOLT4 cells assessed as reduction in c-Myc level by measuring ratio of c-Myc to beta-actin protein level at 80 uM after 6 hrs by Western blot analysis (reference value: 100%); format: cell-based
[26] = species on record: Homo sapiens; test: Induction of IAP-mediated NOTCH1 protein degradation in human MOLT4 cells assessed as reduction in c-Myc level by measuring ratio of c-Myc to beta-actin protein level at 80 uM after 8 hrs by Western blot analysis (reference value: 100%); format: cell-based
[27] = species on record: Homo sapiens; test: Induction of IAP-mediated NOTCH1 protein degradation in human MOLT4 cells assessed as reduction in c-Myc level by measuring ratio of c-Myc to beta-actin protein level at 80 uM after 10 hrs by Western blot analysis (reference value: 100%); format: cell-based
[28] = species on record: Homo sapiens; test: Induction of IAP-mediated NOTCH1 protein degradation in human MOLT4 cells assessed as ratio of NOTCH1 to lamin protein level at 60 uM after 6 hrs in presence of proteasome inhibitor MG132 by Western blot analysis (reference value: 100%); format: cell-based
[29] = species on record: Homo sapiens; test: Induction of IAP-mediated NOTCH1 protein degradation in human MOLT4 cells assessed as ratio of NOTCH1 to lamin protein level at 70 uM after 6 hrs in presence of proteasome inhibitor MG132 by Western blot analysis (reference value: 100%); format: cell-based
[30] = species on record: Homo sapiens; test: Induction of IAP-mediated NOTCH1 protein degradation in human MOLT4 cells assessed as ratio of NOTCH1 to lamin protein level at 80 uM after 6 hrs in presence of proteasome inhibitor MG132 by Western blot analysis (reference value: 100%); format: cell-based

Question: `CC[C@H](C)[C@H](NC(=O)[C@H](CCCNC(=N)N)NC(=O)[C@H](CCCNC(=N)N)NC(=O)[C@H](CCCNC(=N)N)NC(=O)[C@H](CC(C)C)NC(=O)[C@H](CCCNC(=N)N)NC(=O)[C@H](CCC(=O)O)NC(=O)CCNC(=O)COCCOCCNC(=O)COCCOCCNC(=O)[C@@H](NC(=O)[C@@H]1CCCN1C(=O)[C@@H](NC(=O)[C@H](C)NC)C1CCCCC1)C(c1ccccc1)c1ccccc1)C(=O)N[C@@]1(C)CCC/C=C\CCC[C@@](C)(C(=O)N[C@@H](CCCNC(=N)N)C(=O)N[C@@H](Cc2cnc[nH]2)C(=O)N[C@@H](Cc2cnc[nH]2)C(=O)N[C@@H](CO)C(=O)N[C@H](C(=O)O)[C@@H](C)O)NC(=O)[C@H](CS)NC(=O)[C@H](CC(C)C)NC1=O` (H-[NMeA][Chg]P[Dip][AEEA][AEEA][βAla]ERLRRRI[S5]LC[S5]RHHST-OH; staple (Z) 15-18) was tested. Which Ratio [1] did it give?
Answer: 88%

Question: And the Ratio [2]?
Answer: 99%

Question: What about the Ratio [3] of the same compound?
Answer: 76%

Question: What about the Ratio [4] of the same compound?
Answer: 30%

Question: And the Ratio [5]?
Answer: 110%

Question: And the Ratio [6]?
Answer: 114%

Question: What about the Ratio [7] of the same compound?
Answer: 99%

Question: And the Ratio [8]?
Answer: 83%

Question: And the Ratio [9]?
Answer: 72 to 75%

Question: And the Ratio [10]?
Answer: 63 to 70%

Question: And the Ratio [11]?
Answer: 48 to 67%

Question: And the Ratio [12]?
Answer: 108%

Question: What about the Ratio [13] of the same compound?
Answer: 112%

Question: What about the Ratio [14] of the same compound?
Answer: 118%

Question: And the Activity [15]?
Answer: Tde

Question: And the inhibition [16]?
Answer: Active

Question: And the Activity [17]?
Answer: Toxic

Question: And the Ratio [18]?
Answer: 67%

Question: And the Ratio [19]?
Answer: 52%

Question: What about the Ratio [20] of the same compound?
Answer: 54%

Question: And the Ratio [21]?
Answer: 56%

Question: And the Ratio [22]?
Answer: 43%

Question: And the Ratio [23]?
Answer: 62%

Question: What about the Ratio [24] of the same compound?
Answer: 73%

Question: And the Ratio [25]?
Answer: 63%

Question: What about the Ratio [26] of the same compound?
Answer: 56%

Question: And the Ratio [27]?
Answer: 43%

Question: What about the Ratio [28] of the same compound?
Answer: 92%

Question: And the Ratio [29]?
Answer: 108%

Question: What about the Ratio [30] of the same compound?
Answer: 110%

Source: ChEMBL document CHEMBL4043281, “Development of a peptide-based inducer of protein degradation targeting NOTCH1” (Bioorg Med Chem Lett, 2017)
